Our source for the Viable cells values is ChEMBL document CHEMBL1134908, “Synthesis of cholesterol-carborane conjugate for targeted drug delivery” (Bioorg Med Chem Lett, 2002).

The experiment relates to Cancer cell lines. The experiment in a line: The cytotoxicity in liposomal formulation was determined on the SF-763 human glioma cancer cell line. Format: functional, cell-based.

The substance “Cholesteryl 1,12-dicarba-closo-dodecaborane-1-carboxylate (BCH)” had a Viable cells of 98.5%.
